Earlier results on one compound are cited in patent publication US20110311589A1 (priority 2008, published 2011).

The test system of this series is helminthiasis. The note with it: in vivo.

Regarding `c1ccc([C@H]2CN3CCSC3=N2)cc1` [Levamisole], the “Dosages too low, ineffective in treating helminthiasis” value is recorded as “less than 6 mg per kg of body weight”.
